Experimental data published in patent publication EP4745130A1, “CRYSTAL FORMS OF TUBULIN-SRC DUAL-TARGETING INHIBITOR, PREPARATION METHOD THEREFOR AND USE THEREOF” (Hubei Bio-Pharmaceutical Industrial Technological Institute …, priority 2023, dated 2025).

Experiments:
tubulin = molecular target: T1, tubulin (Sus scrofa, UniProt P02550+P02554); experiment: Inhibition test of tubulin monomer polymerization (Tubulin polymerization assay kit, fluorescence); type: biochemical
T1 construct: purchased cytoskeleton BK011P
T1 sequence (P02550 whole entry): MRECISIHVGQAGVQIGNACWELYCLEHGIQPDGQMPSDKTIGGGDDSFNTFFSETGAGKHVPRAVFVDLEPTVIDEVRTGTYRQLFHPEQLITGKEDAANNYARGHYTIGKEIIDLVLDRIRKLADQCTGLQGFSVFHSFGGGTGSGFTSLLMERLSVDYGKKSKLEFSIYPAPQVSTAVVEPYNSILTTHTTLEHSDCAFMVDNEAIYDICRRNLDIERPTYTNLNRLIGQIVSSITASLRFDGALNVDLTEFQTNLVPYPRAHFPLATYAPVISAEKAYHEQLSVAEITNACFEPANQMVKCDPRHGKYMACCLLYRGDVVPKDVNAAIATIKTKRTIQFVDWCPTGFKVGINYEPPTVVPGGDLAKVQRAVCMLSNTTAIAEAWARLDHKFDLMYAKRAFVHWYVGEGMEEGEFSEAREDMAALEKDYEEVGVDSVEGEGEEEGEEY
T1 sequence (P02554 whole entry): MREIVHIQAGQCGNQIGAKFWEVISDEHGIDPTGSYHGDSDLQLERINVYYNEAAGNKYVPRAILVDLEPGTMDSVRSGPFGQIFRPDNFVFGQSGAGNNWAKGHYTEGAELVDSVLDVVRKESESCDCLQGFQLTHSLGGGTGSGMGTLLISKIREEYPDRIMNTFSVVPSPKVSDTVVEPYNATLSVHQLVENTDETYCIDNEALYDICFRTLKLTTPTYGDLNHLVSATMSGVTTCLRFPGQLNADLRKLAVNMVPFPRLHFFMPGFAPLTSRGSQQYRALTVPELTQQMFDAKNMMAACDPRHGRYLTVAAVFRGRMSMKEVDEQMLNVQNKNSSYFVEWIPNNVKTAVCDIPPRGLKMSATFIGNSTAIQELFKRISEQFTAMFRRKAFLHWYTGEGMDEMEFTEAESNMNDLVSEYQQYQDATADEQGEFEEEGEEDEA
Method: Tubulin polymerization assay kit (cytoskeleton, Cat. # BK011P) was used to conduct the compound inhibition test of tubulin monomer polymerization.
Before the test, the 96-well plate (Corning Costar, Cat. # 3686) supplied with the kit was first placed in a microplate reader (MD, SpectraMax M5) and heated to 37°C, maintained for 10 minutes. The 96-well plate was then removed, and 5 µL of 12.5 µM compound solution or blank solution was added thereto. The 96-well plate was then placed back into the microplate reader and incubated at 37°C for 1 minute to heat the compound solution to 37°C. The 96-well plate was removed and 50 µL of reaction mixture prepared according to the supplier's instructions was quickly added to each well, completing the sample addition within 1 minute to avoid the formation of bubbles. The 96-well plate was then immediately placed back into the microplate reader, shaken for 5 seconds, and using the Kinetic mode, continuous detection was carried out at 37°C for 30 to 60 minutes under the conditions of excitation light at 360 nm and emission light at 420 nm, with detection every 30 seconds. Taking the detection time as the X-axis and the fluorescence signal value as the Y-axis, the tubulin monomer polymerization curve was obtained. As shown in FIG. 66 and Table 40, the larger the Vmax value and the higher the maximum fluorescence signal value of the polymerization curve, the lower the inhibitory efficiency of the compound.

[1] = system: actinic keratosis patient-derived cell HT 297.T; experiment: Cell proliferation inhibition test, HT 297.T; type: cell-based, Human
Method: Human cutaneous squamous cell carcinoma cell A-431 (ATCC, CRL-1555) and actinic keratosis patient-derived cell HT 297.T (ATCC, CRL-7782) proliferation assays were used to detect the inhibitory effect of small molecular compounds on cell proliferation.
A-431 cells and HT 297.T cells were cultured in DMEM medium containing 10% fetal bovine serum and grown at 37°C in a 5% CO2 incubator. Cells on logarithmic phase were seeded into a 96-well cell culture plate at 1000 cells/well, 100 µL per well, and then cultured overnight at 37°C in a 5% CO2 incubator. The next day, 100 µL of gradient-diluted 2× test compound solution was added to each well, with DMSO serving as a positive control, and 10 µM staurosporine (Aladdin, S102392) was set as a negative control group. After the addition of the compounds, the culture plate was incubated for another 4 days at 37°C in a 5% CO2 incubator. After incubation, the Steady-Glo® luciferase assay system (Promega, G9243) was used according to the supplier's instructions to measure the fluorescence signal value on the Envision 2104 Multilabel Reader. The inhibition rate was calculated by the following formula, then the curve was plotted with the Log value of the inhibitor concentration as the X-axis and the inhibition rate as the Y-axis, and the IC50 was calculated using Graphpad 8.0. [formula] Table 41: Inhibition results of test compounds on proliferation activity of A-431 and HT 297.T cells

Maximum signal value (tubulin; 5 µL of 12.5 µM compound solution, fluorescence ex 360 nm / em 420 nm, 37°C, larger value = lower inhibitory efficiency): 478
Vmax value and maximum fluorescence signal value of the polymerization curve (tubulin; in words): significantly smaller
Compound: Cc1cc(OCCN2C[C@H]3COC[C@H]3C2)ccc1-c1ccc(CC(=O)NCc2ccccc2)nc1 [Compound of Formula I, N-benzyl-2-(5-(2-methyl-4-(2-((3aR,6aS)-tetrahydro-1H-furo[3,4-c]pyrrol-5(3H)-yl)ethoxy)phenyl)pyridin-2-yl)acetamide]
IC50 ([1]; Homo sapiens, 96 h, 4 days incubation): 41.3 nM
inhibitory effect on HT 297.T cells ([1]; in words, versus control compound): significantly better than that of the control compound
